Tests used:
[1] = relative to sucrose of the same weight; cited from earlier work
[2] = Sensory analysis (triangle test), taste comparison with sucrose as control sample; type: in vivo; settings: vs sucrose; for Difference (number of answers) / No difference (number of answers): aqueous solutions of same sweetness
Source text: The sweetener composition shall be tested, evaluated and analyzed by referring to Sensory Analysis Methodology (Triangular Test) (BS ISO 4120) and Sensory Analysis Method (Triangle Test) (GB/T 12311). The specific analysis method is as follows:
Method and principle: A group of three samples shall be provided to evaluators, two of which are identical and the evaluators shall select a single sample.
Preparation of test samples: Enough samples A and B shall be provided, and every three test samples are a group.
Sample groups with equal number of samples shall be prepared from laboratory samples in the following six combinations: ABB, AAB, ABA, BAA, BBA and BAB.
Test requirements: Evaluators shall not make conclusion as to the nature of samples from sample supply methods. All test sample groups shall be prepared in the same way [the same equipment, the same container, the same quantity of products and the same arrangement (triangle, straight line, etc.)]. In any sample group, the temperature of test samples shall be the same, and if possible, the temperature of all other sample groups in the test series provided shall also be the same. Test sample containers shall be numbered generally with three random digits. The number shall be different for each test.
Test techniques: Evaluators shall be notified of the test purpose to the extent that their conclusions are not biased. Groups of prepared samples shall be randomly assigned to the evaluators, then the evaluators shall check test samples of each group in the specified order, and the order shall be the same in the same series of tests. While evaluating three test samples in the same group, the evaluators shall have the opportunity to retest each sample. The test leader can tell the evaluators the quantity and volume of samples provided when necessary. When the number of evaluators is less than a multiple of 6, the following two approaches can be taken. (a) Discard redundant sample groups, or (b) Provide each evaluator with six groups of samples for retest.
When the evaluator cannot identify the difference, the answer “no difference” is allowed.
The number of “difference” or “no difference” answers shall be counted. When the number of evaluators (n) is greater than 100, the minimum number of answers needed to determine the significant difference in the triangle test at different significance levels (X) is calculated according to the following formula, and the nearest integer value shall be taken. Where, α is the significance level, which is an expected value.
The above evaluation and analysis methods were applied to analyze different compositions, with sucrose as the control sample. Samples and the control sample were prepared respectively into aqueous solutions with the same sweetness and then tested according to the requirements of the above-mentioned sensory analysis method. […]
Rebaudioside A (>97%), DM 3:1 mixture, DM 3:1 mixture-rebaudioside A (1:9, w/w), DM 3:1 mixture-rebaudioside A (9:1, w/w), DM 3:1 mixture-rebaudioside A (3:7, w/w) were analyzed according to the evaluation and analysis methods described above, with sucrose as the control sample. Samples and the control sample were prepared respectively into aqueous solutions with the same sweetness and then tested according to the requirements of the above-mentioned sensory analysis method. […]
Rebaudioside A (>97%), DM 3:1 mixture, DM 3:1 mixture-rebaudioside A (3:7, w/w), DM 3:1 mixture-rebaudioside A (7:3, w/w), DM 3:1 mixture-rebaudioside A (4:6, w/w) were analyzed according to the evaluation and analysis methods described above, with sucrose as the control sample. Samples and the control sample were prepared respectively into aqueous solutions with the same sweetness and then tested according to the requirements of the above-mentioned sensory analysis method. Effective evaluators are 125 primary evaluators, who were allowed to answer “no difference”. […]

[3] = Solubility of reb M in water and solvents; type: physicochemical
[4] = Heat and pH stability of reb M; type: physicochemical
[5] = Evaluation I, 135 primary evaluators
[6] = Evaluation II, 135 primary evaluators
[7] = Evaluation III, 125 primary evaluators
[8] = Evaluation IV, 128 primary evaluators

Molecule: 13-[(2O-β-D-glucopyranosyl-3-O-β-D-glucopyranosyl-β-D-glucopyranosyl)oxy]kaur-16-en18-oic acid, 2-O-β-D-glucopyranosyl-3-O-β-D-glucopyranosyl-β-D-glucopyranosyl ester [RD]
- Sweetness Multiple (1 for sucrose of the same weight) [1]: 150-250
- Difference (number of answers) [2, 5]: 79
- No difference (number of answers) [2, 5]: 56
- Conclusion (taste compared with sucrose) [2, 5]: Similar

Molecule: C=C1C[C@@]23CC[C@H]4[C@@](C)(CCC[C@@]4(C)C(=O)O[C@@H]4O[C@H](CO)[C@@H](O)[C@H](O[C@@H]5O[C@H](CO)[C@@H](O)[C@H](O)[C@H]5O)[C@H]4O[C@@H]4O[C@H](CO)[C@@H](O)[C@H](O)[C@H]4O)[C@@H]2CC[C@]1(O[C@@H]1O[C@H](CO)[C@@H](O)[C@H](O[C@@H]2O[C@H](CO)[C@@H](O)[C@H](O)[C@H]2O)[C@H]1O[C@@H]1O[C@H](CO)[C@@H](O)[C@H](O)[C@H]1O)C3 [RM]
- solubility in organic solvents ([3]; acetone, benzene, chloroform, and ether): insoluble
- solubility in diluted alcohols ([3]; diluted solutions of methanol, ethanol, n-propanol, and isopropanol): soluble
- solubility in water ([3]; water, increases with an increase in temperature): around 0.3%
- Sweetness Multiple (1 for sucrose of the same weight) [1]: 200-350
- Difference (number of answers) [2, 5]: 97
- No difference (number of answers) [2, 5]: 38
- Conclusion (taste compared with sucrose) [2, 5]: Dissimilar
- heat and pH stability [4]: heat and pH-stable

Molecule: C=C1C[C@@]23CC[C@H]4[C@@](C)(CCC[C@@]4(C)C(=O)O[C@@H]4O[C@H](CO)[C@@H](O)[C@H](O)[C@H]4O)[C@@H]2CC[C@]1(O[C@@H]1O[C@H](CO)[C@@H](O)[C@H](O[C@@H]2O[C@H](CO)[C@@H](O)[C@H](O)[C@H]2O)[C@H]1O[C@@H]1O[C@H](CO)[C@@H](O)[C@H](O)[C@H]1O)C3 [RA, rebaudioside A]
- Sweetness Multiple (1 for sucrose of the same weight) [1]: 350-450
- Difference (number of answers) [2, 6]: 85
- No difference (number of answers) [2, 6]: 50
- Conclusion (taste compared with sucrose) [2, 6]: Dissimilar
- Difference (number of answers) [2, 7]: 78
- No difference (number of answers) [2, 7]: 47
- Conclusion (taste compared with sucrose) [2, 7]: Dissimilar
- Difference (number of answers) [2, 8]: 82
- No difference (number of answers) [2, 8]: 46
- Conclusion (taste compared with sucrose) [2, 8]: Dissimilar

Molecule: C=C1C[C@@]23CC[C@H]4[C@@](C)(CCC[C@@]4(C)C(=O)O[C@@H]4O[C@H](CO)[C@@H](O)[C@H](O)[C@H]4O)[C@@H]2CC[C@]1(O[C@@H]1O[C@H](CO)[C@@H](O)[C@H](O)[C@H]1O[C@@H]1O[C@H](CO)[C@@H](O)[C@H](O)[C@H]1O)C3 [STv, stevioside, reference compound]
- Sweetness Multiple (1 for sucrose of the same weight) [1]: 270-300
